From paper PMC4317859 (Cancer Science, 2014)

How the values were obtained:
HT115 (colon) = assay: Growth inhibition assay; format: cell-based; conditions: Homo sapiens, HT115, 72 h, read-out: IC50, growth inhibition of cultured cells
serum albumin = serum albumin (Homo sapiens, UniProt P02768); conditions: cited from earlier work
MRC-5 (lung) = assay: Growth inhibition assay; format: cell-based; conditions: Homo sapiens, MRC5, 72 h, read-out: IC50, growth inhibition of cultured cells
MDA-MB-453 (breast) = assay: Growth inhibition assay; format: cell-based; conditions: Homo sapiens, MDA-MB-453, 72 h, read-out: IC50, growth inhibition of cultured cells
[1] = clinical dose 1200–1250 mg, once daily; cited from earlier work
BT-474 (breast) = assay: Growth inhibition assay; format: cell-based; conditions: Homo sapiens, BT-474, 72 h, read-out: IC50, growth inhibition of cultured cells
NCI-N87 (stomach) = assay: Growth inhibition assay; format: cell-based; conditions: Homo sapiens, NCI-N87, 72 h, read-out: IC50, growth inhibition of cultured cells
SK-BR-3 (breast) = assay: Growth inhibition assay; format: cell-based; conditions: Homo sapiens, SK-BR-3, 72 h, read-out: IC50, growth inhibition of cultured cells
Calu-3 (lung) = assay: Growth inhibition assay; format: cell-based; conditions: Homo sapiens, Calu-3, 72 h, read-out: IC50, growth inhibition of cultured cells
[2] = Pharmacokinetics in nude mice; format: in vivo; conditions: from human plasma AUC and pharmacokinetic parameters in nude mice
NCI-N87 cells = assay: Growth inhibition in the presence of human serum protein; format: cell-based; conditions: serum albumin or α1-acid glycoprotein vs standard medium
BT-474 cells = assay: Survival model, intracranial implantation; format: in vivo, mice; conditions: 200 mg/kg, oral daily
MDA-MB-175VII (breast) = assay: Growth inhibition assay; format: cell-based; conditions: Homo sapiens, 72 h, read-out: IC50, growth inhibition of cultured cells
α1-acid glycoprotein = conditions: cited from earlier work

Chain of serum albumin (P02768 25-609): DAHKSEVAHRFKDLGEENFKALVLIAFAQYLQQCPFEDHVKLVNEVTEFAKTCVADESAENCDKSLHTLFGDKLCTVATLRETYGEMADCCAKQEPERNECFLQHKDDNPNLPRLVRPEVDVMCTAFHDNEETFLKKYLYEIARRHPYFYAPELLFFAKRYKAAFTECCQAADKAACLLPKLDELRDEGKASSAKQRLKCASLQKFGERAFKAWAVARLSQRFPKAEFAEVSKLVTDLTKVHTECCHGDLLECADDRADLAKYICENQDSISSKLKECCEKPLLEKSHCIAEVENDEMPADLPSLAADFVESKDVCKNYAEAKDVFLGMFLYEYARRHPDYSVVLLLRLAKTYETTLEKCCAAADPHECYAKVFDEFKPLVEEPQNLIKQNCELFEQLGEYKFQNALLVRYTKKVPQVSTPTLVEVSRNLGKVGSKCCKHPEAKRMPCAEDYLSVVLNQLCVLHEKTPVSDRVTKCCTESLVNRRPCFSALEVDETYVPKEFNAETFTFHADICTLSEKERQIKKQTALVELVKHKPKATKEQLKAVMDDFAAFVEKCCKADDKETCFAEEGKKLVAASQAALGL

## CS(=O)(=O)CCNCc1ccc(-c2ccc3ncnc(Nc4ccc(OCc5cccc(F)c5)c(Cl)c4)c3c2)o1 [Lapatinib, N-{3-chloro-4-[(3-fluorobenzyl)oxy]phenyl}-6-[5-({[2-(methylsulfonyl)ethyl]amino}methyl)-2-furyl]-4-quinazolinamine]
HT115 (colon)
  IC50: 100 ± 1.5 nM
Serum albumin
  Bound to serum albumin: > 99%
MRC-5 (lung)
  IC50: 9140 ± 643 nM
MDA-MB-453 (breast)
  IC50: 170 ± 3 nM
[1]
  Human plasma AUC: 14300 to 36200 ng·h/mL
BT-474 (breast)
  IC50: 29.4 ± 2.2 nM
NCI-N87 (stomach)
  IC50: 36.4 ± 5.2 nM
SK-BR-3 (breast)
  IC50: 56.9 ± 5.4 nM
Calu-3 (lung)
  IC50: 510 ± 85.8 nM
[2]
  Clinically relevant dose in mice (assumed): approximately 50 mg/kg
NCI-N87 cells
  Elevation of IC50 by addition of serum proteins: 10.6–12.7 fold
BT-474 cells
  Survival: not significant
MDA-MB-175VII (breast)
  IC50: 70.2 ± 10.2 nM
α1-acid glycoprotein
  Bound to α1-acid glycoprotein: > 99%
